The supplement of paper PMC10290057
Where “and” joins values, the source holds several entries; their conditions need not be identical. Identical values can stand only once. Counter-ions that a name gives are not always drawn.

How the values were obtained:
HCT116 [1] = test: AC50 cell viability (CellTiter-Glo); higher = less potent; details: 48 h
HCT116 [2] = test: efficacy (fitted maximal change in viability relative to DMSO control); higher = less cytotoxic (negative = loss of viability); details: 48 h
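For AC50 cell viability (CellTiter-Glo) in this document: HCT116 colorectal carcinoma cells screened at five concentrations per compound, luminescent viability scaled between DMSO wells and empty wells on each plate, curves fitted per compound.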
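For efficacy (fitted maximal change in viability relative to DMSO control) in this document: Luminescence-based viability readout, five doses per compound, normalized against on-plate DMSO and empty-well controls, followed by dose-response curve fitting for every drug.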

| SMILES | AC50 cell viability (HCT116 [1]) | efficacy (HCT116 [2]) |
| --- | --- | --- |
| N[S+](=O)([O-])c1ccc(Nc2nc(OCC3CCCCC3)c3[nH]cnc3n2)cc1 [NU-6102] | 16.6 µM | -92.8% |
| C[S+](=O)([O-])N1CCN(Cc2cc3nc(-c4cccc5[nH]ncc45)nc(N4CCOCC4)c3s2)CC1 [Pictilisib] | 3.32 µM | -78.3% |
| O=C/1\C=C(/OC(=C1)/C2=C3SC4=C(SC3=CC=C2)C=CC=C4)N5CCOCC5 [KU-0064] | 16.6 µM | -77.5% |
| COc1cc2c(Nc3ccc(Cl)c(Cl)c3F)ncnc2cc1OC[C@@H]1C[C@@H]2CN(C)C[C@@H]2C1 [XL647] | 11.8 µM | -113% |
| OC1CCC(CC1)N2\C=N/C3=C(C2=N)C(=C([N]3CC4=CC=CC=C4)C5=CC=CC=C5)C6=CC=CC=C6 (configuration not stated) | 2.95 µM | -107% |
| COc1ccc2[nH]c3c(c2c1)CCN[C@]31CS[C@@H]2c3c(OC(C)=O)c(C)c4c(c3[C@H](COC1=O)N1[C@@H]2[C@H]2c3c(cc(C)c(OC)c3O)C[C@@H]([C@@H]1O)N2C)OCO4 [Lurbinectedin] | 0.00539 µM | -72.4% |
| COc1cc2c(Oc3ccc4[nH]c(C)cc4c3F)ccnc2cc1OCC1(N)CC1 [Anlotinib] | 16.6 µM | -112% |
| CNC(=O)c1ccccc1Nc1nc(Nc2ccc3c(c2OC)CCC[C@@H](N2CCN(CCO)CC2)C3)ncc1Cl | 4.17 µM | -110% |
| Clc1cc(Cl)cc(CNc2ncncc2-c2ccc3c(c2)OCO3)c1 | 13.2 µM | -78.4% |
| COc1ccc([S+](=O)([O-])N(CCO)c2ccccc2CN(C)C/C=C/c2ccc(Cl)cc2)cc1 [KN-93] | 14.8 µM | -93.9% |
| Cc1ccc(F)c(NC(=O)Nc2ccc(-c3cccc4[nH]nc(N)c34)cc2)c1 [Linifanib] | 9.34 µM | -90.4% |
| Cc1[nH]c(/C=C2\C(=O)Nc3ccccc32)c(C)c1CCC(=O)O [Orantinib] | 23.5 µM | -49.3% |
| Cc1c[nH]c2ncnc(N3CCC(CN)(C(=O)Nc4cccc(OC(=O)N(C)C)c4)CC3)c12 [LX-7101] | 14.8 µM and 11.8 µM | -68.9% and -70.5% |
| C[C@@H]1COCCN1c1cc(C2([S@+](C)(=N)[O-])CC2)nc(-c2ccnc3[nH]ccc23)n1 [AZD-6738] | 8.33 µM | -84.1% |
| CC(C)c1ccc2c(c1)c(SC(C)(C)C)c(CC(C)(C)C(=O)[O-])n2Cc1ccc(Cl)cc1 [MK-886] | 20.9 µM | -83.3% |
| CC(C)c1cc(C(C)C)c(CC(=O)N[S+](=O)([O-])Oc2c(C(C)C)cccc2C(C)C)c(C(C)C)c1 [Avasimibe] | 14.8 µM | -82.3% |
| CN[C@H]1CN(C[C@@H]1OC)C2=NC3=C(C=C2)C(=O)C(=C\N3C4=NC=CS4)/C(O)=O [Vosaroxin] | 1.91 µM | -59.8% |
| COCCCOc1ccnc(CS(=O)c2nc3ccccc3[n-]2)c1C.[Na+] (configuration not stated) [Rabeprazole] | 16.6 µM | -43.4% |
| c1ccc2c(-c3cnn4cc(-c5ccc(OCCN6CCOCC6)cc5)cnc34)ccnc2c1 | 6.45 µM | -84.3% |

| SMILES | AC50 cell viability (HCT116 [1]) | efficacy (HCT116 [2]) |
| --- | --- | --- |
| CC1=NN=C(C[C@@H]2\C=C(C3=CC=C(Cl)C=C3)/C4=CC=CC=C4[N]5C(=NN=C25)C)O1 [BAY-356] | 0.934 µM | -72.7% |
| C/C(=C\c1csc(C)n1)[C@@H]1C[C@@H]2O[C@]2(C)CCC[C@H](C)[C@H](O)[C@@H](C)C(=O)C(C)(C)[C@@H](O)CC(=O)N1 [Ixabepilone] | 0.0833 µM | -58.5% |
| CCCCNc1ncc2c(-c3ccc(CN4CCN(C)CC4)cc3)cn([C@H]3CC[C@H](O)CC3)c2n1 [UNC2025 (hydrochloride)] | 1.66 µM | -93.7% |
| CCC(CC)C(c1ccc(Nc2nc3ccccc3s2)cc1)n1cncn1 (stereo not drawn) [Talarozole (R enantiomer)] | 20.9 µM | -96.4% |
| COc1cc2c(cc1O)CC[C@@H]1[C@@H]2CC[C@]2(C)[C@@H](O)CC[C@@H]12 [2-Methoxyestradiol (2-MeOE2)] | 2.35 µM | -63.9% |
| CC1=C(C)C\2=C(S1)[N]3C(=NN=C3C(CC(N)=O)\N=C2C4=CC=C(Cl)C=C4)C (configuration not stated) [CPI-203] | 0.295 µM | -62.8% |
| COc1cccc2c1C(=O)c1c(O)c3c(c(O)c1C2=O)C[C@@](O)(C(=O)CO)C[C@@H]3O[C@H]1C[C@H](N)[C@H](O)[C@H](C)O1 [Doxorubicin] | 0.372 µM | -75.3% |
| O=C1c2ccccc2-c2n[nH]c3cccc1c23 | 13.2 µM | -63.8% |
| CCN(C(=O)C/1=C(O)/C2=C(C=CC=C2Cl)N(C)C1=O)C3=CC=CC=C3 [Laquinimod] | 10.5 µM | -65.8% |
| CC[C@@]1(O)C(=O)OC/C2=C1/C=C3\N(CC4=C5[C@@H](N)CCC6=C5C(=CC(=C6C)F)N=C34)C2=O [Exatecan] | 0.0417 µM | -64% |
| Nc1ccc(/C=C/C(=O)NCc2cc3cc(-c4ccc(C(=O)N5CCC(F)(F)CC5)cc4)cc(-c4ccc(F)cc4)c3o2)cn1 [KPT-9274] | 0.59 µM | -91.7% |
| CCNC(=O)Nc1ccc(-c2nc3c(c(N4CCOC[C@@H]4C)n2)CCN(C2COC2)C3)cc1 [GDC-0349] | 3.32 µM | -46.9% |
| Cc1cccc(/C=N/Nc2cc(N3CCOCC3)nc(OCCc3ccccn3)n2)c1 [Apilimod] | 1.18 µM | -99.4% |
| CCCc1cc(C(=O)N[C@H](Cc2ccc(-c3cccc(OC(F)(F)F)c3)nc2)C(=O)N[C@@H]2CCNC2)sc1C [AZ-82] | 8.33 µM | -97.3% |
| CN1CCN(c2ccc3nc(-c4cc(C(C)(C)C)c(OCCCC(=O)NCCCN=[N+]=[N-])c(C(C)(C)C)c4)[nH]c3c2)CC1 [MIR96-IN-1] | 8.33 µM | -98.9% |
| O=C(Nc1cc(C(F)(F)F)cc(C(F)(F)F)c1)c1cc(Cl)ccc1O [IMD-0354] | 0.833 µM | -88.7% |
| Fc1ccc(-c2csc3ncnc(NCc4ccc5c(c4)OCO5)c23)cc1 | 8.33 µM | -57.3% |
| NC(=O)c1cnc(N[C@@H]2CCCC[C@@H]2N)nc1Nc1cccc(-n2nccn2)c1 | 10.5 µM | -90.7% |
| COC(=O)/C=C/C(=O)N(O)CCCCNCc1ccc(COC(=O)Nc2cccc3ccccc23)cc1 [Methylstat] | 20.9 µM | -84.5% |

| SMILES | AC50 cell viability (HCT116 [1]) | efficacy (HCT116 [2]) |
| --- | --- | --- |
| CCn1nnc2c(N3CCOCC3)nc(-c3ccc(NC(=O)Nc4ccc(C(=O)N5CCN(C)CC5)cc4)cc3)nc21 [PKI-402] | 0.118 µM | -64.4% |
| NCC1CCN(c2nccc(-c3ccc4ccccc4c3)n2)CC1 | 14.8 µM | -126% |
| COc1cc([C@@H]2c3cc4c(cc3[C@@H](O)C3COC(=O)C32)OCO4)cc(OC)c1O (some centres not stated) [DMEP] | 0.235 µM | -52.3% |
| NC1=C(Cl)C(=CC=N1)OC2=C(F)C=C(NC(=O)\C3=C\N\C=C(C3=O)\C4=CC=C(F)C=C4)C=C2 | 16.6 µM | -78.4% |
| C=CC[C@@H]1/C=C(\C)C[C@H](C)C[C@H](OC)[C@H]2O[C@@](O)(C(=O)C(=O)N3CCCC[C@H]3C(=O)O[C@H](/C(C)=C/[C@@H]3CC[C@@H](O)[C@H](OC)C3)[C@H](C)[C@@H](O)CC1=O)[C@H](C)C[C@@H]2OC [FK-506] | 23.5 µM | -91.2% |
| Clc1ccc(C2(c3ccc(-c4cn[nH]c4)cc3)CCNCC2)cc1 [AT-7867] | 18.6 µM | -87.4% |
| O=C(C(c1ccccc1)c1ccccc1)N1CCN(CC(O)COc2cccc3ncccc23)CC1 (configuration not stated) [Dofequidar] | 18.6 µM | -50.3% |
| CNC(=O)c1nn(C)c2c1C(C)(C)Cc1cnc(Nc3ccc(N4CCN(C)CC4)cc3)nc1-2 [Milciclib] | 0.525 µM | -63.4% |
| COc1nc(OCc2cccc(-c3ccccc3)c2C)ccc1CNCCNC(C)=O [BMS-202] | 14.8 µM | -89.9% |
| CN1\N=C(N)/C2=C[N]([C@@H]3O[C@H](CO[P](O)(O)=O)[C@@H](O)[C@H]3O)C4=C2C1=NC=N4 [Triciribine phosphate] | 2.95 µM | -90.5% |
| C/C=C1\NC(=O)[C@H]2CSSCC/C=C\[C@H](CC(=O)N[C@H](C(C)C)C(=O)N2)OC(=O)[C@H](C(C)C)NC1=O [Romidepsin] | 0.00742 µM | -94.8% |
| CCN1CCN(Cc2ccc(NC(=O)c3ccc(C)c(NC(=O)c4cncc(-c5cccs5)c4)c3)cc2C(F)(F)F)CC1 [ALW-II-41-27] | 1.86 µM | -111% |
| CN(C)c1ccccc1CN1CCCN(Cc2ccccc2N(C)C)C1c1ccncc1 [GANT-61] | 18.6 µM | -88.6% |
| O=C(/C=C\n1cnc(-c2cc(C(F)(F)F)cc(C(F)(F)F)c2)n1)N1CC(F)(F)C1 [KPT-276] | 0.59 µM | -75.6% |
| Cc1cncc2cccc([S+](=O)([O-])N3CCCN(C(=O)CN)C[C@@H]3C)c12 [Glycyl-H-1152] | 5.9 µM | -35.8% |
| C[C@@H]1C[C@@H]([C@H](O)CC2CC(=O)NC(=O)C2)C(=O)[C@@H](C)C1 [Cycloheximide] | 0.468 µM | -68.6% |
| COc1cc(C(N)=O)ccc1NC(=O)[C@@H]1N[C@@H](CC(C)(C)C)[C@@]2(C(=O)Nc3cc(Cl)ccc32)[C@H]1c1cccc(Cl)c1F [RO8994] | 0.934 µM | -110% |
| COc1ccccc1[C@H](c1cccc2ccccc12)[C@@](C)(C#N)C(=O)N1CCC(c2cccc(C(F)(F)F)c2)CC1 | 0.833 µM | -39.8% |
